This series in a line: Pharmacokinetics of resveratrol-containing particles in orally dosed Sprague-Dawley rats. Format: in vivo. Conditions: rat, plasma, 20 mg/kg. Here is the method: Parameters were estimated using Watson pharmacokinetic software 7.4.2 (Thermo Electron Corporation) using a non-compartmental approach consistent with the various routes of administration. All parameters were generated from […] individual animal concentrations in plasma. Parameters were estimated using nominal sampling times to be relative to the start of each dose administration (within an acceptable tolerance limit). As no dose formulation samples were analyzed, the nominal calculated dose for active ingredient (20 mg/kg, as per the study protocol, was used for dose-normalization purposes). The area under the test item concentration versus time curve (AUC) was calculated using the linear-log linear trapezoidal method. AUC was not calculated for PK profiles with less than 3 consecutive quantifiable concentrations of test article at separate time points. When practical, the terminal elimination phase of each concentration versus time curve was identified using at least the final three observed concentration values. The slope of the terminal elimination phase was determined using linear regression on the unweighted concentration data. […] The parameters described below were reported to 3 significant figures. Animals were fasted overnight, food was returned 4 hours post dosing. […] Aggregated data is summarized for individual animals in Table 4, below.

This is an account of results in patent US20190175507A1, “COMPOSITIONS FOR ORAL ADMINISTRATION OF ACTIVE AGENTS” (Tamarisk Technologies Group LLC, priority 2016, published 2019).

On to `Oc1ccc(C=Cc2cc(O)cc(O)c2)cc1` [Unencapsulated Resveratrol, Resveratrol], for which, for the setting “oral”, the concentration at 0.5 h turned out to be 78.4 ng/mL, the concentration at 1 h stood at 29.3 ng/mL and the concentration at 2 h is 47.2 ng/mL. Under “po”, the Cmax came out at 82.4 ng/mL. In addition, the AUC (po, read-out: AUC(0-x)) turned out to be 82.8 ng·h/mL.

The term Cmax denotes the peak of the concentration-time curve. By AUC is commonly meant the area under the concentration-time curve, a measure of exposure.
